The text below walks through data of US11919872B1, “N′-(2-(5-(4-chlorophenyl)-1,3,4-oxadiazol-2-ylthio)acetoxy)benzimidamide as an antimicrobial compound” (KING FAISAL UNIVERSITY, priority 2023, dated 2024).

Data set [1] has as its system Chrysosporium keratinophilum. Nature of the data set: Agar plate disc-diffusion, antifungal inhibition zone. The class given is cell-based. The following applies: Sabouraud's dextrose agar, 37° C., 72 hours. As to the method: (§1) The agar plate disc-diffusion method was applied. Sterilized filter papers (6 mm in diameter) were wetted with 10 μL of a solution of N′-(2-(5-(4-chlorophenyl)-1,3,4-oxadiazol-2-ylthio)acetoxy)benzimidamide (3) to be tested, containing 10 mg/mL in DMSO, and the discs were allowed to air dry. The discs were then placed onto the surface of agar plates (nutrient agar for bacteria and Sabouraud's dextrose agar for fungi) seeded with the test organism. Each plate contained 15 mL of the agar medium, previously seeded with 0.2 mL of the broth culture of each organism pregrown for 18 hours. The plates were incubated at 37° C. for 48 hours and 72 hours for fungi. The inhibition zones were measured in mm. Discs impregnated with DMSO were used as a control, and their inhibition zone was subtracted from the tested compound's actual inhibition zone.
(In general: In agar diffusion tests the substance spreads into inoculated agar from a disc or well.)

The next data set concerns Aspergillus flavus. The data set is described as above. The class given is cell-based. To be noted: Sabouraud's dextrose agar, 37° C., 72 hours. As to the method: as §1
The next data set has as its system Pseudomonas aeruginosa. Nature of the data set: Agar plate disc-diffusion, antibacterial inhibition zone. The class given is cell-based. The following applies: nutrient agar, 37° C., 48 hours. As to the method:
as §1

The next data set relates to Escherichia coli. The description is as above. The class given is cell-based. The following applies: nutrient agar, 37° C., 48 hours. As to the method:
as §1

Another data set has as its system Bacillus cereus. The data set is described as above. To be noted: nutrient agar, 37° C., 48 hours. The class given is cell-based. The protocol:
as §1

In the next data set the test system is Staphylococcus aureus. Described as above. The class given is cell-based. The following applies: nutrient agar, 37° C., 48 hours. As to the method:
as §1

Setting [2] is: A = concentration of comp. = 10,000 μg/mL.
The mark [3] stands for this setting: B = concentration of comp. = 30,000 μL.
[4] abbreviates: C = concentration of comp. = 50,000 μL.
Setting [5] is: A = concentration of comp. = 10,000 μL.

SMILES strings stand for the structures. Values joined by “and” are separate entries in the source; they are usually repeats but may differ in a detail not shown here. Equal entries are not always repeated.

For the compound `O=C(O)c1cn(C2CC2)c2cc(N3CCNCC3)c(F)cc2c1=O` [Cip., ciprofloxacin, reference compound], the “inhibition zone, Chrysosporium keratinophilum” value is reported as 29 mm in data set [1] (setting [2]), 30 mm in data set [1] (setting [3]) and 53 mm in data set [1] (setting [4]). For the same compound, the figures for the “inhibition zone, Aspergillus flavus” value in the data set with Aspergillus flavus (setting [2]), in the data set with Aspergillus flavus (setting [3]) and in the data set on Aspergillus flavus (setting [4]) were 29 mm, 30 mm and 42 mm, respectively. Further, the “inhibition zone, Pseudomonas aeruginosa” value with Pseudomonas aeruginosa (setting [5]) is recorded as 29 mm; with Pseudomonas aeruginosa (setting [3]), 30 mm; in the data set on Pseudomonas aeruginosa (setting [4]), 53 mm. Also, the “inhibition zone, Escherichia coli” value turned out to be 30 mm with Escherichia coli (setting [5]), 39 mm in the data set with Escherichia coli (setting [3]) and 60 mm with Escherichia coli (setting [4]). Also, the entries for the “inhibition zone, Bacillus Cereus” value with Bacillus cereus (setting [5]), in the data set on Bacillus cereus (setting [3]) and in the data set on Bacillus cereus (setting [4]) were 29 mm, 30 mm and 42 mm, respectively. The “inhibition zone, Staphylococcus aureus” value in the data set on Staphylococcus aureus (setting [5]) is given as 43 mm; in the data set on Staphylococcus aureus (setting [3]), 44 mm; in the data set on Staphylococcus aureus (setting [4]), 53 mm.
On to `N/C(=N\OC(=O)CSc1nnc(-c2ccc(Cl)cc2)o1)c1ccccc1` [Compound 3, N′-(2-(5-(4-chlorophenyl)-1,3,4-oxadiazol-2-ylthio)acetoxy)benzimidamide], for which the melting point was ~ 174 °C and 174 °C. Further, in data set [1] (setting [2]), the “inhibition zone, Chrysosporium keratinophilum” value amounted to 24 mm. Also, the “inhibition zone, Chrysosporium keratinophilum” value in data set [1] (setting [3]) amounted to 29 mm. Further, in data set [1] (setting [4]), the “inhibition zone, Chrysosporium keratinophilum” value is given as 50 mm. Further, the “inhibition zone, Aspergillus flavus” value in the data set with Aspergillus flavus (setting [2]) came to 27 mm. The “inhibition zone, Aspergillus flavus” value with Aspergillus flavus (setting [3]) was determined as 29 mm. For the same compound, the “inhibition zone, Aspergillus flavus” value in the data set with Aspergillus flavus (setting [4]) is listed as 38 mm. For the same compound, the “inhibition zone, Pseudomonas aeruginosa” value with Pseudomonas aeruginosa (setting [5]) turned out to be 25 mm. In addition, in the data set on Pseudomonas aeruginosa (setting [3]), the “inhibition zone, Pseudomonas aeruginosa” value came out at 29 mm. For the same compound, in the data set with Pseudomonas aeruginosa (setting [4]), the “inhibition zone, Pseudomonas aeruginosa” value was 50 mm. The “inhibition zone, Escherichia coli” value in the data set on Escherichia coli (setting [5]) was 22 mm. Moreover, the “inhibition zone, Escherichia coli” value in the data set with Escherichia coli (setting [3]) is 33 mm. Besides, the “inhibition zone, Escherichia coli” value in the data set with Escherichia coli (setting [4]) was determined as 46 mm. Also, the “inhibition zone, Bacillus Cereus” value in the data set with Bacillus cereus (setting [5]) came out at 27 mm. For the same compound, in the data set on Bacillus cereus (setting [3]), the “inhibition zone, Bacillus Cereus” value is 29 mm. For the same compound, in the data set with Bacillus cereus (setting [4]), the “inhibition zone, Bacillus Cereus” value amounted to 40 mm. Moreover, in the data set on Staphylococcus aureus (setting [5]), the “inhibition zone, Staphylococcus aureus” value came to 38 mm. Besides, the “inhibition zone, Staphylococcus aureus” value in the data set with Staphylococcus aureus (setting [3]) is 42 mm. In addition, the “inhibition zone, Staphylococcus aureus” value in the data set on Staphylococcus aureus (setting [4]) is 52 mm.
